Laboratory results as given in US20090306150A1, “CARBOXYLIC ACID SALTS OF 2-AMINO-3-CARBETHOXYAMINO-6-(4-FLUORO-BENZYLAMINO)-PYRIDINE” (AWD. PHARMA GMBH & CO. KG, priority 2008, published 2009).

How the values were obtained:
Assay type in all cases: physicochemical
[1] = Crystal shape of flupirtine salts (light microscope photomicrographs)
Description: As referred to herein, the “aspect ratio” denotes the ratio of the second largest dimension of a crystal particle (i.e. its width) to the largest dimension of the crystal particle (i.e. its length). The aspect ratio may be determined from a representative number of crystals by visual observation under a light microscope. The photomicrographs were obtained by gently exerting pressure on the sample material with a mortar and pistil, transferring the sample material to a microscope slide and covering it with immersion oil, followed by observation and image recording on an Optech Biostar microscope equipped with a polarisation filter. The magnification was 200, i.e. at a width of the photomicrograph of 14 cm, 1 cm of said photograph corresponds to about 0.06 mm.

[2] = Storage stability of flupirtine salts (HPLC); conditions: for Decrease of the area under the peak of the flupirtine signal: 0 to 14 days of storage at room temperature under normal air; for Flupirtine signal after 14 days (area under the peak in %): HPLC after 14 days of storage at room temperature under normal air, about 21% oxygen; for Flupirtine signal after 0 days (area under the peak in %): HPLC after preparation of the salts
Procedure: [table] HPLC was performed after preparation of the salts and repeated after 14 days of storage at room temperature under normal air containing about 21% oxygen.

[3] = Dissolution profiles of flupirtine acid addition salts in ethanol (compacted substance); conditions: 100 mg compacted, 1000 ml ethanol, 37° C., basket 50 UpM
Procedure: The dissolution in Ethanol was measured using compacted substance.
100 mg substance was compacted using a hydraulic press. Diameter of cake: 8.9 mm; pressure 20 kp/cm^2 for 15 sec. Liberation parameter:
Basket, 50 UpM, 1000 ml medium 37° C. Apparatus: DT6R Dissolution Tester (ERWEKA).
At given time points 5.0 ml solution were taken and measured vs. reference at 244 nm at a spectral photometer. The solution was refilled with 5 ml solvent. The amount of liberated substance at given time points was calculated using a response factor (absorption/mg substance). Measuring error: 10%.

[4] = Determining the bulk density of flupirtine salts; conditions: volume per 100.0 g of sample material, about 4 g in 10 ml measuring cylinder, not compacted
Procedure: The bulk density was determined as follows: Without increasing its density, sample material (about 4 grams) was introduced into a 10 ml measuring cylinder (±0.2 ml). The volume and the exact weight of the introduced sample material were determined. The bulk density was calculated as volume per 100.0 g of sample material.

[5] = Stability towards oxidation and discoloration when exposed to air; conditions: storage period of 30 days at room temperature, in contrast to maleate and gluconate
Description: Discoloration can take takes place after prolonged storage or when exposed to air. Discoloration is regarded as leading to an active pharmaceutical ingredient (API) of low pharmaceutical quality and can be avoided by using a protective atmosphere in the production process and using expensive packaging materials for the finished drug forms. The discoloration effect is known for flupirtine hydrochloride, flupiritine gluconate and both polymorphs of flupirtine maleate.

[6] = Dissolution profiles of flupirtine acid addition salts in ethanol (compacted substance); conditions: after 10 min stirring in ethanol

SMILES | Crystal shape [1] | Decrease of the area under the peak of the flupirtine signal [2] | Flupirtine signal after 14 days (area under the peak in %) [2] | Flupirtine signal after 0 days (area under the peak in %) [2] | Amount of substance dissolved ([3]; 5 min) | Amount of substance dissolved ([3]; 10 min) | Amount of substance dissolved ([3]; 15 min) | Amount of substance dissolved ([3]; 20 min) | Amount of substance dissolved ([3]; 25 min) | Amount of substance dissolved ([3]; 30 min) | Amount of substance dissolved ([3]; 60.25 min) | Bulk density (ml/100 g substance) [4] | Stability towards oxidation and towards discoloration [5] | Dissolution in ethanol (in words) [6]
CCOC(=O)Nc1ccc(NCc2ccc(F)cc2)nc1N.O=C(O)/C=C\C(=O)O [Flupirtine maleate B, Flupirtine Maleate Form B, reference compound] | Very fine needles | 3.22% | 95.92% | 99.12% | 4.2 mg | 6.3 mg | 12.1 mg | 16.5 mg | 21.3 mg | 27.4 mg | 69.5 mg | 1634 ml/100 g substance | – | –
CCOC(=O)Nc1ccc(NCc2ccc(F)cc2)nc1N [Flupirtine propionate, 2-amino-3-carbethoxyamino-6-(4-fluoro-benzylamino)-pyridine propionate] | Hexagons and polygonal plates | – | – | – | 110.0 mg | 109.4 mg | 110.3 mg | 107.4 mg | 109.6 mg | 110.9 mg | 112.2 mg | 306 ml/100 g substance | substantially improved stability | completely dissolved
CC(=O)O.CCOC(=O)Nc1ccc(NCc2ccc(F)cc2)nc1N [Flupirtine acetate, 2-amino-3-carbethoxyamino-6-(4-fluoro-benzylamino)-pyridine acetate] | Hexagons and polygonal plates | 0.9% | 98.64% | 99.54% | 50.3 mg | 108.3 mg | 103.0 mg | 95.8 mg | 96.2 mg | 108.3 mg | 99.7 mg | 330 ml/100 g substance | substantially improved stability | –
CCOC(=O)Nc1ccc(NCc2ccc(F)cc2)nc1N.O=C(O)/C=C\C(=O)O [Flupirtine maleate A, Flupirtine Maleate Form A, reference compound] | Fine needles | 3.11% | 96.18% | 99.27% | 2.1 mg | 4.1 mg | 6.5 mg | 9.5 mg | 11.7 mg | 14.3 mg | 24.2 mg | 686 ml/100 g substance | – | –
CCOC(=O)Nc1ccc(NCc2ccc(F)cc2)nc1N.O=C(O)C(F)(F)F [Flupirtine triflutate, Flupirtine Triflutate] | – | – | – | – | 98.5 mg | 115.1 mg | 108.0 mg | 107.7 mg | – | – | – | – | – | completely dissolved
